The values that follow come from patent US10851116B2, “Bicyclic amines as novel JAK kinase inhibitors” (LEO Pharma A/S, priority 2017, dated 2020).

Data set [1] deals with JAK2 (Homo sapiens (Human), UniProt O60674). In words: JAK kinase assay (HTRF), JAK2. The data set is classed as biochemical. Conditions: catalytic domain, His-tag, ATP at Km (4 μM). The method, then:
(§1) Human baculovirus-expressed JAK1, 2, 3 and TYK2 were purchased from Carna Biosciences, Inc. All four purified enzymes contain only the catalytic domain. JAK1 (aa 850-1154) and TYK2 (aa 871-1187) are expressed with an N-terminally fused GST-tag, and JAK2 and JAK3 with an N-terminally fused His-tag.
(§2) Inhibition of phosphorylation of a synthetic peptide was measured in an HTRF-based assay using the TK substrate-Biotin from the Cisbio HTRFKinEASE TK kit. First, 2 μl of TK solution (TK substrate-biotin in kinase buffer [1× enzymatic buffer from HTRFKinEASE TK kit, 1 mM DTT]) is added to a plate containing 1 μl prediluted compound (final assay concentration DMSO: 0.75%). Then, 5 μl kinase-ATP mix (prepared in kinase buffer) is added to the wells and the plates are incubated at RT for 20-30 min. For all four kinases a concentration of ATP that corresponded to the Km for ATP was used. The final concentrations of buffers, substrate, kinase and ATP were: JAK1: 50 mM Hepes buffer pH 7.0, 0.01% BSA, 10 mM MgCl2, 1 mM DTT, 7 μM ATP, 50 nM SEB, 1 μM TK Substrate-Biotin and 5 ng JAK1; JAK2: 50 mM Hepes buffer pH 7.0, 0.01% BSA, 5 mM MgCl2, 1 mM DTT, 4 μM ATP, 1 μM TK Substrate-Biotin and 0.1 ng JAK2; JAK3: 50 mM Hepes buffer pH 7.0, 0.01% BSA, 5 mM MgCl2, 1 mM DTT, 2 μM ATP, 1 μM TK Substrate-Biotin and 0.3 ng JAK3; TYK2: 50 mM Hepes buffer pH 7.0, 0.01% BSA, 5 mM MgCl2, 1 mM DTT, 13 μM ATP, 50 nM SEB, 1 μM TK Substrate-Biotin and 0.8 ng TYK2. Thereafter, the kinase reaction is stopped by adding 4 μl detection mix (final concentrations: 50 mM Hepes buffer pH 7.0, 0.01% BSA, 0.8 M KF, 20 mM EDTA, 42 nM Streptavidin-XL665 and 1:400 STK Ab Cryptate) and the plates are incubated overnight in the dark. The HTRF signal is read using an Envision plate reader.

For data set [2], the target named is JAK3 (Homo sapiens (Human), UniProt P52333). In words: JAK kinase assay (HTRF), JAK3. The data set is classed as biochemical. The note with it: catalytic domain, His-tag, ATP at Km (2 μM). The method, then:
as §1, §2

Data set [3] has as its target TYK2 (Homo sapiens (Human), UniProt P29597). Nature of the data set: JAK kinase assay (HTRF), TYK2. Format: biochemical. Conditions: catalytic domain (aa 871-1187), GST-tag, ATP at Km (13 μM). How it is done:
as §1, §2

Data set [4] can be described thus: in vitro metabolic stability in human liver microsomes. Format: in vitro ADME. The note with it: compound 0.5 μM, human liver microsomes 0.5 mg/mL, NADPH, 40 min, 37° C.; for CLint scaled at 0.5 μM: human, liver microsomes, read-out: Human liver microsome Clapp (apparent intrinsic clearance). The method, then: To assess the in vitro metabolic stability, the compounds (0.5 μM) were incubated in duplicates with human liver microsomes (0.5 mg/mL) in phosphate buffer and NADPH, in 96-well plates for 40 min (37° C.), using a liquid handling robot (Hamilton Microlab Star). Sample aliquots were taken at 0, 5, 10, 20 and 40 min, and dispensed into cold acetonitrile, in order to stop the reactions. The plates were centrifuged for 30 minutes before the samples were analyzed using liquid chromatography coupled to a time-of-flight mass spectrometer (AB Sciex API5600). The compound depletion over time was used to estimate the elimination rate constant, from which the apparent intrinsic clearance, Clapp, was calculated and the values are listed in table 2.

The target of data set [5] is JAK1 (Homo sapiens (Human), UniProt P23458). In words: JAK kinase assay (HTRF), JAK1. The data set is classed as biochemical. The note with it: catalytic domain (aa 850-1154), GST-tag, ATP at Km (7 μM). The method, then:
as §1, §2

Sequence of TYK2 (P29597 871-1187): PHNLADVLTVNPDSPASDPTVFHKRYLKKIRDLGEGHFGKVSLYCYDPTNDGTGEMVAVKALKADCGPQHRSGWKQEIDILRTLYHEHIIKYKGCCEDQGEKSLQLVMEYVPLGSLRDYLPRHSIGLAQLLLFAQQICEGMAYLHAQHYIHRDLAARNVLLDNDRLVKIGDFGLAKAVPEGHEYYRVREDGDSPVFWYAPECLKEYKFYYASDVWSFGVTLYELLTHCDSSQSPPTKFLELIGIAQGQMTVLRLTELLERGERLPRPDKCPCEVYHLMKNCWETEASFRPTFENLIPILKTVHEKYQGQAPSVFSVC
Sequence of JAK2 (O60674 849-1124): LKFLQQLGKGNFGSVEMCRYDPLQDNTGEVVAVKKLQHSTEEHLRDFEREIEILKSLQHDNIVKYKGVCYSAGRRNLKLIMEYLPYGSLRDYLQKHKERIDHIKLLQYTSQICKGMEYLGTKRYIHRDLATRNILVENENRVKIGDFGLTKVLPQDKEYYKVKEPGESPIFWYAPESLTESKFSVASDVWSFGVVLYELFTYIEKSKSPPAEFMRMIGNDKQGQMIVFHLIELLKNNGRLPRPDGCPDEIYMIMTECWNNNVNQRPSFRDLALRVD
Sequence of JAK3 (P52333 822-1111): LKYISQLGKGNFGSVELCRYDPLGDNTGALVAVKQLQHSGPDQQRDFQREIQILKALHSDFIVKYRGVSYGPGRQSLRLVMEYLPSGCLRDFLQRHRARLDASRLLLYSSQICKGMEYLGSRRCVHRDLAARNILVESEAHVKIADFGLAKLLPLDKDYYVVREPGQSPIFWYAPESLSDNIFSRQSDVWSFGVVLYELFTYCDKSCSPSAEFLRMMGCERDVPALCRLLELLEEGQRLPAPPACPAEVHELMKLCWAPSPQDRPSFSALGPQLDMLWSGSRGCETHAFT
Sequence of JAK1 (P23458 850-1154): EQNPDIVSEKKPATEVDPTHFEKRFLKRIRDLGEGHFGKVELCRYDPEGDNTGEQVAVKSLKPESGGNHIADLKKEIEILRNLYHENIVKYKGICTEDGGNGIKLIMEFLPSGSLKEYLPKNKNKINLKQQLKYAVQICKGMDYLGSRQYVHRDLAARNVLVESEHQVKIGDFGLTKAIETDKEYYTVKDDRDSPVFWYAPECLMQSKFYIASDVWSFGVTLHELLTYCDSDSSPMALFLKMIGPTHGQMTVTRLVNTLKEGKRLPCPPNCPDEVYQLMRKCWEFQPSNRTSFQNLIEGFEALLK

Turning to `Cc1cc(N2CC[C@H]3CCN(c4ncnc5[nH]ccc45)C[C@@]3(C)C2)ncc1C#N` (racemic) [Example 8, 6-[(4aS*,8aR*)-8a-methyl-7-(7H-pyrrolo[2,3-d]pyrimidin-4-yl)-3,4,4a,5,6,8-hexahydro-1H-2,7-naphthyridin-2-yl]-4-methyl-pyridine-3-carbonitrile], the EC50 worked out at 269 nM in data set [1], 21 nM in data set [2], 2110 nM in data set [3] and 86 nM in data set [5]. Further, the CLint scaled at 0.5 μM in data set [4] stood at 200 mL/min/kg.

With `Cc1cc(N2C[C@H]3CCN(c4ncnc5[nH]ccc45)C[C@@]3(C)C2)ncc1C#N` (racemic) [Example 40, 6-[(3aR*,7aS*)-3a-methyl-5-(7H-pyrrolo[2,3-d]pyrimidin-4-yl)-1,3,4,6,7,7a-hexahydropyrrolo[3,4-c]pyridin-2-yl]-4-methyl-pyridine-3-carbonitrile], the EC50 in data set [1] was determined as 28 nM; in data set [2], 46 nM; in data set [3] it was 722 nM; in data set [5] it was 3 nM. For the same molecule, in data set [4], the CLint scaled at 0.5 μM amounted to 200 mL/min/kg.

Take `C[C@]12CN(c3ncc(C#N)cn3)C[C@H]1CCN(c1ncnc3[nH]ccc13)C2` (racemic) [Example 41, 2-[(3aS*,7aS*)-3a-methyl-5-(7H-pyrrolo[2,3-d]pyrimidin-4-yl)-1,3,4,6,7,7a-hexahydropyrrolo[3,4-c]pyridin-2-yl]pyrimidine-5-carbonitrile]: the EC50 came out at 216 nM in data set [1], 70 nM in data set [2], 2040 nM in data set [3] and 49 nM in data set [5].

Consider `C[C@]12CN(c3ccc(C#N)nn3)C[C@H]1CCN(c1ncnc3[nH]ccc13)C2` (racemic) [Example 42], for which the EC50 in data set [1] is 53 nM; in data set [2], 78 nM; in data set [3], 574 nM; in data set [5], 10 nM. The CLint scaled at 0.5 μM in data set [4] worked out at 53 mL/min/kg.

With `C[C@]12CN(c3cnc(C#N)cn3)C[C@H]1CCN(c1ncnc3[nH]ccc13)C2` (racemic) [Example 43], the EC50 in data set [1] came out at 22 nM; in data set [2], 37 nM; in data set [3], 232 nM; in data set [5], 3 nM. Besides, in data set [4], the CLint scaled at 0.5 μM stood at 55 mL/min/kg.

Take `Cc1cc(C#N)cnc1N1C[C@H]2CCN(c3ncnc4[nH]ccc34)C[C@@]2(C)C1` (racemic) [Example 44]: the EC50 in data set [1] stood at 179 nM; in data set [2], 99 nM; in data set [3], 2020 nM; in data set [5], 65 nM.

Turning to `Cc1nc(N2C[C@H]3CCN(c4ncnc5[nH]ccc45)C[C@@]3(C)C2)ccc1C#N` (racemic) [Example 45, 6-[(3aR*,7aS*)-3a-methyl-5-(7H-pyrrolo[2,3-d]pyrimidin-4-yl)-1,3,4,6,7,7a-hexahydropyrrolo[3,4-c]pyridin-2-yl]-2-methyl-pyridine-3-carbonitrile], the EC50 was determined as 103 nM in data set [1], 120 nM in data set [2], 1190 nM in data set [3] and 30 nM in data set [5].

Turning to `C[C@]12CN(C(=O)C3(C#N)CCCC3)C[C@H]1CCN(c1ncnc3[nH]ccc13)C2` (racemic) [Example 46, 1-[(3aS*,7aS*)-3a-methyl-5-(7H-pyrrolo[2,3-d]pyrimidin-4-yl)-1,3,4,6,7,7a-hexahydropyrrolo[3,4-c]pyridine-2-carbonyl]cyclopentanecarbonitrile], the half-maximal effective concentration (EC50) in data set [1] is 625 nM; in data set [2], 705 nM; in data set [3], 1510 nM; in data set [5] it was 97 nM.

Take `C[C@]12CN(c3ccc(C#N)cn3)C[C@H]1CCN(c1ncnc3[nH]ccc13)C2` (racemic) [Example 47]: the EC50 came to 30 nM in data set [1], 26 nM in data set [2], 159 nM in data set [3] and 5 nM in data set [5]. Moreover, the CLint scaled at 0.5 μM in data set [4] came to 133 mL/min/kg.

Consider `C[C@]12CN(C#N)CC[C@H]1CCN(c1ncnc3[nH]ccc13)C2` (relative stereo) [Example 2, (4aR*,8aS*)-8a-methyl-7-(7H-pyrrolo[2,3-d]pyrimidin-4-yl)-3,4,4a,5,6,8-hexahydro-1H-2,7-naphthyridine-2-carbonitrile], for which the EC50 in data set [1] was 6 nM; in data set [2] it was 25 nM; in data set [3], 27 nM; in data set [5] it was 1 nM. The “Human liver microsome Clapp (apparent intrinsic clearance)” value in data set [4] is on record as 62 mL/min/kg.

With `CC[C@]12CN(C(C)=O)CC[C@H]1CCN(c1ncnc3[nH]ccc13)C2` (relative stereo) [Example 15, 1-[(4aR*,8aS*)-8a-ethyl-7-(7H-pyrrolo[2,3-d]pyrimidin-4-yl)-3,4,4a,5,6,8-hexahydro-1H-2,7-naphthyridin-2-yl]ethanone], the EC50 stood at 453 nM in data set [1], 69 nM in data set [2], 1040 nM in data set [3] and 121 nM in data set [5].

Regarding `CC[C@]12CN(C=O)CC[C@H]1CCN(c1ncnc3[nH]ccc13)C2` (relative stereo) [Example 16, (4aR*,8aS*)-8a-ethyl-7-(7H-pyrrolo[2,3-d]pyrimidin-4-yl)-3,4,4a,5,6,8-hexahydro-1H-2,7-naphthyridine-2-carbaldehyde], the EC50 turned out to be 41 nM in data set [1], 43 nM in data set [2], 176 nM in data set [3] and 13 nM in data set [5]. Further, the CLint scaled at 0.5 μM in data set [4] was 116 mL/min/kg.

For `CC[C@]12CN(c3nc(C#N)cs3)CC[C@H]1CCN(c1ncnc3[nH]ccc13)C2` (relative stereo) [Example 25, 2-[(4aR*,8aS*)-8a-ethyl-7-(7H-pyrrolo[2,3-d]pyrimidin-4-yl)-3,4,4a,5,6,8-hexahydro-1H-2,7-naphthyridin-2-yl]thiazole-4-carbonitrile], the 50% effective concentration (EC50) stood at 139 nM in data set [1], 29 nM in data set [2], 1110 nM in data set [3] and 46 nM in data set [5].

On to `CC[C@]12CN(c3ncnc4[nH]ccc34)CC[C@H]1CCN(S(N)(=O)=O)C2` [Example 19, (4aS,8aR)-8a-ethyl-7-(7H-pyrrolo[2,3-d]pyrimidin-4-yl)-3,4,4a,5,6,8-hexahydro-1H-2,7-naphthyridine-2-sulfonamide], for which the EC50 is 208 nM in data set [1], 151 nM in data set [2], 1880 nM in data set [3] and 146 nM in data set [5].

Regarding `CC[C@@]12CN(C#N)CC[C@@H]1CCN(c1ncnc3[nH]ccc13)C2` [Example 21, (4aS,8aR)-8a-ethyl-7-(7H-pyrrolo[2,3-d]pyrimidin-4-yl)-3,4,4a,5,6,8-hexahydro-1H-2,7-naphthyridine-2-carbonitrile], the half-maximal effective concentration (EC50) came to 187 nM in data set [1], 578 nM in data set [2], 988 nM in data set [3] and 80 nM in data set [5].

With `C[C@@]12CN(C#N)C[C@@H]1CCN(c1ncnc3[nH]ccc13)C2` [Example 28, (3aR,7aR)-3a-methyl-5-(7H-pyrrolo[2,3-d]pyrimidin-4-yl)-1,3,4,6,7,7a-hexahydropyrrolo[3,4-c]pyridine-2-carbonitrile], the EC50 in data set [1] was found to be 827 nM; in data set [2], 2180 nM; in data set [3], 2470 nM; in data set [5], 240 nM.

With `CCC12CNCCC1CCN(c1ncnc3[nH]ccc13)C2` (stereo not drawn) [Intermediate 10, 8a-ethyl-7-(7H-pyrrolo[2,3-d]pyrimidin-4-yl)-1,2,3,4,4a,5,6,8-octahydro-2,7-naphthyridine], the EC50 came to 25 nM in data set [1], 157 nM in data set [2], 1980 nM in data set [3] and 16 nM in data set [5].
